Test results reported in patent publication US20100093603A1, “USE OF ORGANIC COMPOUNDS” (priority 2008, published 2010).

Columns and labels:
Format in all cases: in vivo, Sprague Dawley rats
[1] = test system: intracellular Ang II (iAng II) in cardiac myocytes; assay: Measurement of iAng II in cardiac myocytes isolated from STZ-diabetic rat hearts (competitive ELISA); conditions: for iAng II levels in cardiac myocytes: STZ-diabetic rats treated daily for 7 days (insulin 2-5 U BID SC; candesartan 1 mg/kg IP; aliskiren 30 mg/kg oral; benazepril 10 mg/kg oral), mean±SE, diabetic untreated 0.59±0.01, control 0.06±0.01; for iAng II synthesis, blocked or not (result in words): diabetic rats, summary statement
Procedure: (§1) Diabetes is induced by a single injection of streptozotocin (STZ, 65 mg/kg body weight, IP) dissolved in 0.1 M sodium citrate buffered saline (pH 4.5), in adult male Sprague Dawley rats (250-300 g). Control animals receive buffered saline alone. Diabetes is confirmed by sustained blood glucose levels >15 mmol/L, as determined 48 h after STZ injection and on alternate days thereafter. […] After 7 days, animals are weighed and anesthetized using ketamine/xylazine (50/5 mg/kg). Hearts are isolated and weighed before perfusion, the latter using the Langendorff methodology.
Hearts are isolated and perfused with Krebs-Henseleit bicarbonate buffer, followed by digestion with collagenase II (0.1% w/v). Myocytes are separated from non-myocytes by differential centrifugation at 25×g. […] The pellet containing myocytes is processed for Ang II extraction, as described by Singh et al in Am J Physiol Heart Circ Physiol 293:H939-H948, 2007. Cells were lysed in ice-cold 1 M acetic acid, containing a protease inhibitor cocktail (Sigma), by sonication (2 pulses of 5 sec each). The lysate is sedimented at 20,000×g for 10 min and the supernatant is dried in a vacufuge, followed by reconstitution in 1% acetic acid. The samples are applied to a conditioned DSC-18 column (Supelco), washed, and eluted with methanol. The eluted samples are dried and reconstituted in PBS for ELISA. For isolation of Ang II from plasma, an equal volume of 2% acetic acid is added to plasma, followed by filtration through Amicon Ultra-15 filters. The filtrate is applied to DSC-18 columns and Ang II is eluted, as described for the cell lysates. […] Ang II is measured by quantitative, competitive ELISA, using a specific anti-Ang II antibody (Peninsula Labs), as previously described in Am J Physiol Heart Circ Physiol 293:H939-H948, 2007. ELISA is performed on protein-A and anti-Ang II antibody-coated 96-well dishes. Competitive binding of synthetic biotinylated Ang II, in the presence of the extracted peptide, is detected with streptavidin-horseradish peroxidase conjugate. A standard curve, generated from binding of a constant amount of biotinylated Ang II with increasing concentrations of non-biotinylated synthetic Ang II, is used to calculate the concentration of the peptide in the sample. The concentration of Ang II in the cell lysates is expressed as fmoles per milligram of heart wt and in plasma as fmoles per milligram of plasma proteins.
Ang II levels in cardiac myocytes, which are isolated after perfusion of the hearts and enzymatic dispersion, correspond to Ang II present intracellularly. To determine the source of iAng II, i.e., intracellular synthesis or AT1-mediated internalization, one group of diabetic animals is treated with the AT1 antagonist candesartan to prevent receptor-mediated uptake.

cardiac myocytes = assay: Cardiac myocyte apoptosis in heart sections (TUNEL assay and cleaved caspase-3 staining); conditions: STZ-diabetic rats; for Caspase-3 staining, Mean / TUNEL assay, Mean: 7 days of treatment, heart sections; for Caspase-3 staining, Mean: control 7, diabetic no treatment 28; for TUNEL assay, Mean: control 8.5, diabetic no treatment 33
[2] = test system: Superoxide production in the hearts; assay: Reactive oxygen species detection in the heart by dihydroethidium (DHE) staining; conditions: STZ-diabetic rats; for DHE fluorescence, Mean: 7 days of treatment, frozen heart sections, 10 μM DHE, control 17.65, diabetic no treatment 68.6; for superoxide production / oxidative stress (result in words): DHE staining of heart sections
[3] = test system: Cardiac interstitial fibrosis; assay: Cardiac interstitial fibrosis by Masson's trichrome staining, graded on a scale of 0-4; conditions: for degree of fibrosis (average grade): STZ-diabetic rats after one week of diabetes, scale 0-4, diabetic untreated grade 1.5, control grade 0; for diabetes-induced cardiac fibrosis (result in words): diabetic rats, summary statement
Procedure: as §1
Cardiac interstitial fibrosis is determined by Masson's trichrome staining on 5 μm paraffin-embedded sections. The extent and degree of fibrosis is graded on a scale of 0-4. Grade 0 signifies no apparent collagen fiber proliferation except for small islets of fibrous tissue around the capillaries, as well as an intercellular single layer of collagenous tissue, as in normal myocardium. Focal and minimal fibrosis is graded as 1, mild patchy fibrosis as grade 2, moderate diffuse fibrosis as grade 3 and the most prominent fibrosis, covering major area of the specimen, is classified as 4. A minimum of three sections per heart, with five fields per section, and three animals per experimental group, are analyzed and results presented as an average grade.
After one week of diabetes, the overall staining for fibrosis is enhanced in hearts from diabetic rats (grade 1.5), compared to control animals (grade 0). […] Candesartan and benazepril reduces the degree of fibrosis (grade 0.43 and 0.88, respectively), whereas aliskiren has a more pronounced reduction of fibrosis (grade 0.25) in diabetic rat hearts.

Row | Compound | iAng II levels in cardiac myocytes [1] [fmole/mg heart wt] | iAng II synthesis, blocked or not (result in words) [1] | Caspase-3 staining, Mean (cardiac myocytes) [positive cells/mm^2] | TUNEL assay, Mean (cardiac myocytes) [positive cells/mm^2] | DHE fluorescence, Mean [2] [Arbitrary units] | superoxide production / oxidative stress (result in words) [2] | degree of fibrosis (average grade) [3] [grade] | diabetes-induced cardiac fibrosis (result in words) [3] | number of apoptotic cells (result in words) (cardiac myocytes; by both TUNEL assay and caspase-3 staining)
1 | COCCCOc1cc(C[C@@H](C[C@H](N)[C@@H](O)C[C@H](C(=O)NCC(C)(C)C(N)=O)C(C)C)C(C)C)ccc1OC [aliskiren, 2(S),4(S),5(S),7(S)—N-(3-amino-2,2-dimethyl-3-oxopropyl)-2,7-di(1-methylethyl)-4-hydroxy-5-amino-8-[4-methoxy-3-(3-methoxy-propoxy)phenyl]-octanamide] | 0.12±0.02 | blocked | 18 | 21.3 | 22.7 | blocks it completely | 0.25 | complete inhibition | –
2 | CCOC(=O)[C@H](CCc1ccccc1)N[C@H]1CCc2ccccc2N(CC(=O)O)C1=O [benazepril] | 0.55±0.02 | not | 21 | 27 | 51.4 | reduces oxidative stress | 0.88 | partially inhibited | –
3 | CCOc1nc2cccc(C(=O)O)c2n1Cc1ccc(-c2ccccc2-c2nnn[nH]2)cc1 [candesartan] | 0.43±0.05 | – | 18.5 | 24 | 37.7 | – | 0.43 | – | –
4 | insulin: type 1 diabetes therapeutic agent, used to normalize blood glucose in STZ-treated rats | – | – | 14 | 20 | 26.7 | prevented | 0.04 | – | reduces the number of apoptotic cells, but does not prevent apoptosis completely
